Results reported in PMC5775428, “Towards an experimental classification system for membrane active peptides” (Scientific Reports, 2018).
Like-named read-outs stand apart in the source and are kept apart here.

Columns and labels:
[1] = system: Xanthomonas campestris; settings: for Minimum inhibitory concentration, Average: average of triplicates
Protocol: (§1) Antimicrobial activity was tested against three categories of human and plant pathogenic microorganisms: Gram-positive (Bacillus subtilis, Bacillus cereus, Staphylococcus aureus), Gram-negative (Escherichia coli, Pseudomonas aeruginosa, Erwinia carotovora, Pseudomonas syringae pv. tabaci, Xanthomonas campestris pv. citri) and yeasts (Candida albicans, Cryptococcus neoformans), as previously reported. […] The full list of peptide MICs was published in an accompanying paper, and is available in the current publication as supplementary dataset (Supplementary dataset 01).
(§2) The determination of the minimum inhibitory concentration (MIC) of peptides was performed as described in “Encrypted Antimicrobial Peptides from Plant Proteins”[7]. Briefly, MICs were determined following protocols M7-A10 and M27-A3 from Clinical & Laboratory Standards Institute (CLSI) for bacteria and yeasts, respectively. Different concentrations of IAPs (0.5 to 256 μM) were tested against several microorganisms in a final volume of 100 µL. Three biological repetitions, with 2 technical replicates each, were performed for each test, on polystyrene flat-bottom 96 wells microplates. The minimum inhibitory concentration (MIC) was defined as the concentration at which no cells were detected when visualized by optical microscopy. Please refer to the literature[7] for further details of the microbiological assays.

[2] = system: Pseudomonas syringae pv. tabaci
Protocol: as §1, §2

[3] = system: Candida albicans
Protocol: as §1, §2

[4] = system: Staphylococcus aureus
Protocol: as §1, §2

[5] = system: Bacillus subtilis; settings: Bacillus subtilis; for Minimum inhibitory concentration, Average: average of triplicates
Protocol: as §1, §2

[6] = system: Bacillus cereus
Protocol: as §1, §2

[7] = system: Escherichia coli
Protocol: as §1, §2

[8] = system: Pseudomonas aeruginosa
Protocol: as §1, §2

[9] = system: Erwinia carotovora
Protocol: as §1, §2

[10] = system: Cryptococcus neoformans; settings: Cryptococcus neoformans; for Minimum inhibitory concentration, Average: average of triplicates
Protocol: as §1, §2

[11] = Staphylococcus aureus, CLSI M7-A10, triplicate 1
[12] = Staphylococcus aureus, average of triplicates
[13] = Staphylococcus aureus, triplicate 2
[14] = Staphylococcus aureus, triplicate 3
[15] = Pseudomonas syringae pv. tabaci, CLSI M7-A10, triplicate 1
[16] = Pseudomonas syringae pv. tabaci, average of triplicates
[17] = Pseudomonas syringae pv. tabaci, triplicate 2
[18] = Pseudomonas syringae pv. tabaci, triplicate 3
[19] = Candida albicans, average of triplicates
[20] = Bacillus cereus, CLSI M7-A10, triplicate 1
[21] = Bacillus cereus, average of triplicates
[22] = Escherichia coli, CLSI M7-A10, triplicate 1
[23] = Escherichia coli, average of triplicates
[24] = Pseudomonas aeruginosa, CLSI M7-A10, triplicate 1
[25] = Pseudomonas aeruginosa, average of triplicates
[26] = Pseudomonas aeruginosa, triplicate 2
[27] = Pseudomonas aeruginosa, triplicate 3
[28] = Erwinia carotovora, CLSI M7-A10, triplicate 1
[29] = Erwinia carotovora, average of triplicates
[30] = Erwinia carotovora, triplicate 2
[31] = Erwinia carotovora, triplicate 3
[32] = Candida albicans, CLSI M27-A3, 0.5 to 256 μM tested, triplicate 1, also published in ref 7

Row | Sequence | Minimum inhibitory concentration ([1]; CLSI M7-A10, triplicate 1) [µM] | Minimum inhibitory concentration, Average [1] [µM] | Minimum inhibitory concentration ([1]; triplicate 2) [µM] | Minimum inhibitory concentration ([1]; triplicate 3) [µM] | Minimum inhibitory concentration [4, 11] [µM] | Minimum inhibitory concentration, Average [4, 12] [µM] | Minimum inhibitory concentration [4, 13] [µM] | Minimum inhibitory concentration [4, 14] [µM] | Minimum inhibitory concentration ([5]; CLSI M7-A10, triplicate 1) [µM] | Minimum inhibitory concentration, Average [5] [µM] | Minimum inhibitory concentration ([5]; triplicate 2) [µM] | Minimum inhibitory concentration ([5]; triplicate 3) [µM] | Minimum inhibitory concentration ([10]; CLSI M27-A3, triplicate 1) [µM] | Minimum inhibitory concentration, Average [10] [µM] | Minimum inhibitory concentration ([10]; triplicate 2) [µM] | Minimum inhibitory concentration ([10]; triplicate 3) [µM] | Minimum inhibitory concentration [2, 15] [µM] | Minimum inhibitory concentration, Average [3, 19] [µM] | Minimum inhibitory concentration ([3]; Candida albicans, triplicate 2) [µM] | Minimum inhibitory concentration ([3]; Candida albicans, triplicate 3) [µM] | further results
1 | GLYNFIKVLGRTVFGLYKQF [At04] | 512 | 512.0 | 512 | 512 | 16 | 16.0 | 16 | 16 | 256 | 256.0 | 256 | 256 | 64 | 64.0 | 64 | 64 | – | – | – | – | Minimum inhibitory concentration [2]: 512 µM; Minimum inhibitory concentration, Average [2]: 512.0 µM; Minimum inhibitory concentration [3]: 512 µM; Minimum inhibitory concentration, Average [3]: 512.0 µM; Minimum inhibitory concentration [6]: 512 µM; Minimum inhibitory concentration, Average [6]: 512.0 µM; Minimum inhibitory concentration [7]: 512 µM; Minimum inhibitory concentration, Average [7]: 512.0 µM; Minimum inhibitory concentration [8]: 512 µM; Minimum inhibitory concentration, Average [8]: 512.0 µM; Minimum inhibitory concentration [9]: 512 µM; Minimum inhibitory concentration, Average [9]: 512.0 µM
2 | IKLRNVLKYLFRIDVIKEDIL [Tc03] | 64 | 64.0 | 64 | 64 | 512 | 512.0 | 512 | 512 | 16 | 16.0 | 16 | 16 | 512 | 512.0 | 512 | 512 | 32 | 512.0 | 512 | 512 | Minimum inhibitory concentration, Average [2, 16]: 32.0 µM; Minimum inhibitory concentration [2, 17]: 32 µM; Minimum inhibitory concentration [2, 18]: 32 µM; Minimum inhibitory concentration [6, 20]: 128 µM; Minimum inhibitory concentration, Average [6, 21]: 128.0 µM; Minimum inhibitory concentration ([6]; Bacillus cereus, triplicate 2): 128 µM; Minimum inhibitory concentration ([6]; Bacillus cereus, triplicate 3): 128 µM; Minimum inhibitory concentration [7, 22]: 64 µM; Minimum inhibitory concentration, Average [7, 23]: 64.0 µM; Minimum inhibitory concentration ([7]; Escherichia coli, triplicate 2): 64 µM; Minimum inhibitory concentration ([7]; Escherichia coli, triplicate 3): 64 µM; Minimum inhibitory concentration [8, 24]: 512 µM; Minimum inhibitory concentration, Average [8, 25]: 512.0 µM; Minimum inhibitory concentration [8, 26]: 512 µM; Minimum inhibitory concentration [8, 27]: 512 µM; Minimum inhibitory concentration [9, 28]: 32 µM; Minimum inhibitory concentration, Average [9, 29]: 32.0 µM; Minimum inhibitory concentration [9, 30]: 32 µM; Minimum inhibitory concentration [9, 31]: 32 µM
3 | FFGHIWHGARTLFRDVFA [Cs02] | 32 | 32.0 | 32 | 32 | 8 | 8.0 | 8 | 8 | 2 | 3.3 | 4 | 4 | 32 | 32.0 | 32 | 32 | 4 | 32.0 | 32 | 32 | Minimum inhibitory concentration, Average [2, 16]: 4.0 µM; Minimum inhibitory concentration [2, 17]: 4 µM; Minimum inhibitory concentration [2, 18]: 4 µM; Minimum inhibitory concentration [3, 32]: 32 µM; Minimum inhibitory concentration [6, 20]: 64 µM; Minimum inhibitory concentration, Average [6, 21]: 64.0 µM; Minimum inhibitory concentration ([6]; Bacillus cereus, triplicate 2): 64 µM; Minimum inhibitory concentration ([6]; Bacillus cereus, triplicate 3): 64 µM; Minimum inhibitory concentration [7, 22]: 8 µM; Minimum inhibitory concentration, Average [7, 23]: 8.0 µM; Minimum inhibitory concentration ([7]; Escherichia coli, triplicate 2): 8 µM; Minimum inhibitory concentration ([7]; Escherichia coli, triplicate 3): 8 µM; Minimum inhibitory concentration [8, 24]: 512 µM; Minimum inhibitory concentration, Average [8, 25]: 512.0 µM; Minimum inhibitory concentration [8, 26]: 512 µM; Minimum inhibitory concentration [8, 27]: 512 µM; Minimum inhibitory concentration [9, 28]: 32 µM; Minimum inhibitory concentration, Average [9, 29]: 32.0 µM; Minimum inhibitory concentration [9, 30]: 32 µM; Minimum inhibitory concentration [9, 31]: 32 µM
4 | IVNHLVKLFDKGLNSIVNLR [Tc05] | 512 | 512.0 | 512 | 512 | – | – | – | – | 64 | 64.0 | 64 | 64 | 128 | 128.0 | 128 | 128 | – | 128.0 | 128 | 128 | Minimum inhibitory concentration [2]: 512 µM; Minimum inhibitory concentration, Average [2]: 512.0 µM; Minimum inhibitory concentration [3, 32]: 128 µM; Minimum inhibitory concentration [4]: 512 µM; Minimum inhibitory concentration, Average [4]: 512.0 µM; Minimum inhibitory concentration [6]: 512 µM; Minimum inhibitory concentration, Average [6]: 512.0 µM; Minimum inhibitory concentration [7]: 512 µM; Minimum inhibitory concentration, Average [7]: 512.0 µM; Minimum inhibitory concentration [8]: 512 µM; Minimum inhibitory concentration, Average [8]: 512.0 µM; Minimum inhibitory concentration [9]: 512 µM; Minimum inhibitory concentration, Average [9]: 512.0 µM
5 | GFKDLLKGAAKALVKTVLF [Asc-8, Ascaphin 8, reference compound] | 2 | 2.0 | 2 | 2 | 2 | 2.0 | 2 | 2 | 1 | 1.0 | 1 | 1 | 4 | 4.0 | 4 | 4 | 2 | 8.0 | 8 | 8 | Minimum inhibitory concentration, Average [2, 16]: 2.0 µM; Minimum inhibitory concentration [2, 17]: 2 µM; Minimum inhibitory concentration [2, 18]: 2 µM; Minimum inhibitory concentration [3, 32]: 8 µM; Minimum inhibitory concentration [6, 20]: 4 µM; Minimum inhibitory concentration, Average [6, 21]: 4.0 µM; Minimum inhibitory concentration ([6]; Bacillus cereus, triplicate 2): 4 µM; Minimum inhibitory concentration ([6]; Bacillus cereus, triplicate 3): 4 µM; Minimum inhibitory concentration [7, 22]: 2 µM; Minimum inhibitory concentration, Average [7, 23]: 2.0 µM; Minimum inhibitory concentration ([7]; Escherichia coli, triplicate 2): 2 µM; Minimum inhibitory concentration ([7]; Escherichia coli, triplicate 3): 2 µM; Minimum inhibitory concentration [8, 24]: 4 µM; Minimum inhibitory concentration, Average [8, 25]: 4.0 µM; Minimum inhibitory concentration [8, 26]: 4 µM; Minimum inhibitory concentration [8, 27]: 4 µM; Minimum inhibitory concentration [9, 28]: 2 µM; Minimum inhibitory concentration, Average [9, 29]: 3.3 µM; Minimum inhibitory concentration [9, 30]: 4 µM; Minimum inhibitory concentration [9, 31]: 4 µM
